Test results published in the NIST ThermoML archive (doi:10.1016/j.jct.2007.11.011).
± gives the expanded uncertainty stated by the source.

Assay: xn = mol fraction of the nth substance listed
Details: Liquid

CCOS(=O)(=O)[O-].CCn1cc[n+](C)c1 [1-ethyl-3-methylimidazolium ethyl sulfate] + CO
mass density [kg/m3]
Details	100 kPa	2500 kPa	5000 kPa	10000 kPa	15000 kPa	20000 kPa	25000 kPa	30000 kPa	35000 kPa
283.15 K, x1 = 0.04781	895.14 ± 0.57	896.98 ± 0.6	898.83 ± 0.64	902.39 ± 0.71	905.85 ± 0.78	909.18 ± 0.85	912.41 ± 0.92	915.51 ± 0.98	918.59 ± 1
283.15 K, x1 = 0.1026	968.87 ± 0.48	970.47 ± 0.48	972.09 ± 0.49	975.24 ± 0.5	978.32 ± 0.5	981.31 ± 0.51	984.2 ± 0.51	987.02 ± 0.5	989.77 ± 0.54
283.15 K, x1 = 0.1977	1052.5 ± 0.52	1053.84 ± 0.54	1055.23 ± 0.56	1057.94 ± 0.6	1060.59 ± 0.66	1063.21 ± 0.72	1065.75 ± 0.79	1068.22 ± 0.87	1070.64 ± 0.95
283.15 K, x1 = 0.2432	1081.02 ± 0.55	1082.31 ± 0.58	1083.64 ± 0.61	1086.24 ± 0.69	1088.8 ± 0.77	1091.31 ± 0.87	1093.76 ± 0.97	1096.15 ± 1.1	1098.5 ± 1.2
283.15 K, x1 = 0.3026	1111.91 ± 0.59	1113.14 ± 0.64	1114.41 ± 0.68	1116.86 ± 0.79	1119.26 ± 0.91	1121.66 ± 1.1	1123.99 ± 1.2	1126.28 ± 1.4	1128.48 ± 1.5
283.15 K, x1 = 0.3887	1145.18 ± 0.64	1146.33 ± 0.7	1147.51 ± 0.77	1149.84 ± 0.92	1152.14 ± 1.1	1154.4 ± 1.3	1156.62 ± 1.5	1158.82 ± 1.7	1160.95 ± 1.9
283.15 K, x1 = 0.485	1173.12 ± 0.69	1174.24 ± 0.77	1175.35 ± 0.85	1177.57 ± 1	1179.75 ± 1.2	1181.92 ± 1.5	1184.04 ± 1.7	1186.14 ± 1.9	1188.17 ± 2.2
283.15 K, x1 = 0.589	1195.65 ± 0.73	1196.74 ± 0.81	1197.79 ± 0.91	1199.93 ± 1.1	1202.04 ± 1.4	1204.13 ± 1.6	1206.18 ± 1.9	1208.21 ± 2.1	1210.17 ± 2.4
283.15 K, x1 = 0.7289	1218.63 ± 0.77	1219.71 ± 0.87	1220.74 ± 0.97	1222.79 ± 1.2	1224.82 ± 1.5	1226.84 ± 1.8	1228.82 ± 2.1	1230.77 ± 2.4	1232.67 ± 2.6
283.15 K, x1 = 0.8521	1233.5 ± 0.8	1234.47 ± 0.9	1235.48 ± 1	1237.48 ± 1.3	1239.47 ± 1.6	1241.45 ± 1.9	1243.37 ± 2.2	1245.28 ± 2.5	1247.16 ± 2.8
283.15 K, x1 = 0.9397	1242.49 ± 0.82	1243.52 ± 0.93	1244.49 ± 1.1	1246.47 ± 1.4	1248.43 ± 1.6	1250.39 ± 2	1252.3 ± 2.3	1254.18 ± 2.6	1256.03 ± 2.9
293.15 K, x1 = 0.04781	886.34 ± 0.58	888.27 ± 0.62	890.2 ± 0.66	893.93 ± 0.74	897.52 ± 0.82	900.98 ± 0.9	904.34 ± 0.97	907.55 ± 1.1	910.71 ± 1.1
293.15 K, x1 = 0.1026	960.49 ± 0.49	962.13 ± 0.5	963.82 ± 0.5	967.09 ± 0.52	970.28 ± 0.53	973.36 ± 0.54	976.36 ± 0.54	979.27 ± 0.54	982.13 ± 0.55
293.15 K, x1 = 0.1977	1044.52 ± 0.51	1045.92 ± 0.52	1047.38 ± 0.54	1050.18 ± 0.58	1052.91 ± 0.63	1055.6 ± 0.68	1058.22 ± 0.75	1060.75 ± 0.81	1063.26 ± 0.89
293.15 K, x1 = 0.2432	1073.23 ± 0.54	1074.55 ± 0.56	1075.93 ± 0.59	1078.61 ± 0.66	1081.24 ± 0.74	1083.82 ± 0.83	1086.34 ± 0.92	1088.79 ± 1	1091.21 ± 1.1
293.15 K, x1 = 0.3026	1104.25 ± 0.58	1105.51 ± 0.62	1106.81 ± 0.67	1109.35 ± 0.77	1111.82 ± 0.88	1114.27 ± 1	1116.67 ± 1.1	1119.01 ± 1.3	1121.32 ± 1.5
293.15 K, x1 = 0.3887	1137.8 ± 0.63	1138.99 ± 0.69	1140.22 ± 0.75	1142.61 ± 0.89	1144.95 ± 1	1147.27 ± 1.2	1149.55 ± 1.4	1151.75 ± 1.6	1153.96 ± 1.8
293.15 K, x1 = 0.485	1165.78 ± 0.68	1166.91 ± 0.75	1168.06 ± 0.83	1170.35 ± 1	1172.59 ± 1.2	1174.79 ± 1.4	1176.97 ± 1.6	1179.09 ± 1.9	1181.21 ± 2.1
293.15 K, x1 = 0.589	1188.53 ± 0.71	1189.55 ± 0.8	1190.65 ± 0.89	1192.84 ± 1.1	1194.99 ± 1.3	1197.11 ± 1.6	1199.2 ± 1.8	1201.26 ± 2.1	1203.3 ± 2.3
293.15 K, x1 = 0.7289	1211.6 ± 0.75	1212.63 ± 0.85	1213.69 ± 0.95	1215.79 ± 1.2	1217.88 ± 1.5	1219.92 ± 1.7	1221.94 ± 2	1223.92 ± 2.3	1225.88 ± 2.6
293.15 K, x1 = 0.8521	1226.42 ± 0.78	1227.39 ± 0.89	1228.45 ± 1	1230.49 ± 1.3	1232.52 ± 1.6	1234.53 ± 1.8	1236.51 ± 2.1	1238.43 ± 2.4	1240.37 ± 2.7
293.15 K, x1 = 0.9397	1235.42 ± 0.8	1236.43 ± 0.91	1237.46 ± 1	1239.51 ± 1.3	1241.5 ± 1.6	1243.48 ± 1.9	1245.42 ± 2.2	1247.34 ± 2.5	1249.28 ± 2.8
298.15 K, x1 = 0.04781	881.9 ± 0.59	883.82 ± 0.63	885.81 ± 0.67	889.63 ± 0.76	893.33 ± 0.84	896.87 ± 0.92	900.3 ± 1	903.63 ± 1.1	906.81 ± 1.2
298.15 K, x1 = 0.1026	956.23 ± 0.49	957.85 ± 0.5	959.6 ± 0.51	962.97 ± 0.53	966.22 ± 0.54	969.37 ± 0.55	972.43 ± 0.56	975.41 ± 0.57	978.3 ± 0.57
298.15 K, x1 = 0.1977	1040.54 ± 0.5	1041.91 ± 0.52	1043.39 ± 0.53	1046.26 ± 0.57	1049.05 ± 0.61	1051.78 ± 0.66	1054.44 ± 0.72	1057.05 ± 0.79	1059.58 ± 0.86
298.15 K, x1 = 0.2432	1069.25 ± 0.53	1070.58 ± 0.56	1071.99 ± 0.58	1074.73 ± 0.65	1077.43 ± 0.72	1080.03 ± 0.8	1082.59 ± 0.9	1085.11 ± 0.99	1087.54 ± 1.1
298.15 K, x1 = 0.3026	1100.31 ± 0.57	1101.59 ± 0.61	1102.92 ± 0.66	1105.51 ± 0.75	1108.07 ± 0.86	1110.55 ± 0.98	1112.96 ± 1.1	1115.37 ± 1.3	1117.69 ± 1.4
298.15 K, x1 = 0.3887	1134.01 ± 0.63	1135.21 ± 0.68	1136.46 ± 0.74	1138.92 ± 0.87	1141.32 ± 1	1143.68 ± 1.2	1145.98 ± 1.4	1148.26 ± 1.6	1150.46 ± 1.8
298.15 K, x1 = 0.485	1162.03 ± 0.67	1163.15 ± 0.74	1164.36 ± 0.82	1166.69 ± 0.98	1168.99 ± 1.2	1171.24 ± 1.4	1173.44 ± 1.6	1175.62 ± 1.8	1177.74 ± 2.1
298.15 K, x1 = 0.589	1184.83 ± 0.71	1185.86 ± 0.79	1187.01 ± 0.88	1189.25 ± 1.1	1191.45 ± 1.3	1193.61 ± 1.6	1195.76 ± 1.8	1197.87 ± 2	1199.91 ± 2.3
298.15 K, x1 = 0.7289	1207.95 ± 0.75	1208.92 ± 0.84	1210.02 ± 0.94	1212.17 ± 1.2	1214.29 ± 1.4	1216.37 ± 1.7	1218.42 ± 2	1220.46 ± 2.2	1222.43 ± 2.5
298.15 K, x1 = 0.8521	1222.76 ± 0.78	1223.17 ± 0.88	1224.62 ± 0.99	1226.79 ± 1.3	1228.88 ± 1.5	1230.93 ± 1.8	1232.93 ± 2.1	1234.93 ± 2.4	1236.86 ± 2.7
298.15 K, x1 = 0.9397	1231.87 ± 0.8	1232.94 ± 0.9	1234.01 ± 1	1236.07 ± 1.3	1238.12 ± 1.6	1240.12 ± 1.9	1242.11 ± 2.2	1244.08 ± 2.5	1245.99 ± 2.8
303.15 K, x1 = 0.04781	877.37 ± 0.59	879.39 ± 0.64	881.43 ± 0.68	885.44 ± 0.77	890.01 ± 0.86	–	–	–	–
303.15 K, x1 = 0.1026	951.86 ± 0.5	953.61 ± 0.51	955.38 ± 0.52	958.89 ± 0.54	962.19 ± 0.56	–	–	–	–
303.15 K, x1 = 0.1977	1036.37 ± 0.5	1037.84 ± 0.51	1039.36 ± 0.53	1042.38 ± 0.56	1045.21 ± 0.6	–	–	–	–
303.15 K, x1 = 0.2432	1065.2 ± 0.53	1066.61 ± 0.55	1068.04 ± 0.58	1070.92 ± 0.64	1073.64 ± 0.71	–	–	–	–
303.15 K, x1 = 0.3026	1096.34 ± 0.57	1097.65 ± 0.61	1099 ± 0.65	1101.75 ± 0.74	1104.31 ± 0.84	–	–	–	–
303.15 K, x1 = 0.3887	1130.14 ± 0.62	1131.4 ± 0.67	1132.67 ± 0.73	1135.24 ± 0.86	–	–	–	–	–
303.15 K, x1 = 0.485	1158.24 ± 0.67	1159.4 ± 0.73	1160.61 ± 0.81	1163.06 ± 0.97	–	–	–	–	–
303.15 K, x1 = 0.589	1181.07 ± 0.7	1182.15 ± 0.78	1183.33 ± 0.87	1185.69 ± 1.1	–	–	–	–	–
303.15 K, x1 = 0.7289	1204.24 ± 0.74	1205.29 ± 0.83	1206.4 ± 0.93	1208.67 ± 1.2	–	–	–	–	–
303.15 K, x1 = 0.8521	1219.11 ± 0.77	1220.12 ± 0.87	1221.21 ± 0.98	1223.41 ± 1.2	–	–	–	–	–
303.15 K, x1 = 0.9397	1228.28 ± 0.79	1229.37 ± 0.89	1230.44 ± 1	1232.62 ± 1.3	–	–	–	–	–
